According to ChEMBL document CHEMBL4507329, “Data for DCP probe BTZO-1” (2021):

How the values were obtained:
[1] = target: Phosphatidylinositol 4,5-bisphosphate 3-kinase catalytic subunit alpha isoform (Homo sapiens) (UniProt P42336); details: Compound concentration 1000.0 nM
[2] = target: Calcium/calmodulin-dependent protein kinase kinase 1 (Homo sapiens) (UniProt Q8N5S9); details: Compound concentration 1000.0 nM
[3] = target: Death-associated protein kinase 2 (Homo sapiens) (UniProt Q9UIK4); details: Compound concentration 1000.0 nM
[4] = target: Mitogen-activated protein kinase 11 (Homo sapiens) (UniProt Q15759); details: Compound concentration 1000.0 nM
[5] = test system: Epidermal growth factor receptor (Homo sapiens), P00533 [L858R,T790M]; details: Compound concentration 1000.0 nM
[6] = target: Myosin-IIIa (Homo sapiens) (UniProt Q8NEV4); details: Compound concentration 1000.0 nM
[7] = target: Dual specificity protein kinase CLK2 (Homo sapiens) (UniProt P49760); details: Compound concentration 1000.0 nM
[8] = target: Eukaryotic translation initiation factor 2-alpha kinase 1 (Homo sapiens) (UniProt Q9BQI3); details: Compound concentration 1000.0 nM
Sequence of Eukaryotic translation initiation factor 2-alpha kinase 1 (Homo sapiens) (Q9BQI3 whole entry): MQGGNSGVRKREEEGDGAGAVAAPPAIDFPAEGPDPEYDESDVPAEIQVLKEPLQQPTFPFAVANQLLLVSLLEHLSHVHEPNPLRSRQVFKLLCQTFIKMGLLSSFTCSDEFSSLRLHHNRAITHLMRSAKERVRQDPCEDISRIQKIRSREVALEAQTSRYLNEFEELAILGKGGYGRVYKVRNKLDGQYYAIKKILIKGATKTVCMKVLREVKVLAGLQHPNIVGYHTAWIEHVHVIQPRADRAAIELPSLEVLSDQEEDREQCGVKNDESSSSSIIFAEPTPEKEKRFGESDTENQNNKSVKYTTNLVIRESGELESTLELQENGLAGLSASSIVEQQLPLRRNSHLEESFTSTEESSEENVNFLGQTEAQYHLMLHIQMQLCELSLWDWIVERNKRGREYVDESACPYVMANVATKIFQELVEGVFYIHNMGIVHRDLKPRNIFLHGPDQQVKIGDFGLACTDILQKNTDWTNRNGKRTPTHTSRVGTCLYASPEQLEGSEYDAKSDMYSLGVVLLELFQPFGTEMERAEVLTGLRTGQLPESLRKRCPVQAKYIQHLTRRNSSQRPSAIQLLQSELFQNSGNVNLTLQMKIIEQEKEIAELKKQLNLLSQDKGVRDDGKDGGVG

[9] = target: 5-hydroxytryptamine receptor 2B (Homo sapiens) (UniProt P41595); details: Compound concentration 10.0 uM
[10] = test system: Hepatocyte growth factor receptor (Homo sapiens), P08581 [M1250T]; details: Compound concentration 1000.0 nM
[11] = target: Tyrosine-protein kinase Fyn (Homo sapiens) (UniProt P06241); details: Compound concentration 1000.0 nM
Sequence of Tyrosine-protein kinase Fyn (Homo sapiens) (P06241 2-537 limits assumed): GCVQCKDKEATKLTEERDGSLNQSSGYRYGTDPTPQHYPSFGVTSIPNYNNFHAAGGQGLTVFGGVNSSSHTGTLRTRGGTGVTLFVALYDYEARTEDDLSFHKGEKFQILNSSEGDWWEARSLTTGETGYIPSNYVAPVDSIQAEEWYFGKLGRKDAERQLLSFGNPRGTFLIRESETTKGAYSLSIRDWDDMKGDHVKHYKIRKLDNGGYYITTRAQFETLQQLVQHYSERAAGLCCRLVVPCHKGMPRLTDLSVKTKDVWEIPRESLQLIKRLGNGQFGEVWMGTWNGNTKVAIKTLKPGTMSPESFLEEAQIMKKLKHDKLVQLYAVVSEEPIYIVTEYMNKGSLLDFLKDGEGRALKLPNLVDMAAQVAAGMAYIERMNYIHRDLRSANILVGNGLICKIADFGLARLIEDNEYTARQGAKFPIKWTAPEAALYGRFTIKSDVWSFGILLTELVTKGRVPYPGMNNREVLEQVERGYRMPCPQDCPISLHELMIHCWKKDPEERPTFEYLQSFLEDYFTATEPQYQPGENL

[12] = target: Serine/threonine-protein kinase 16 (Homo sapiens) (UniProt O75716); details: Compound concentration 1000.0 nM
[13] = target: Mitogen-activated protein kinase 1 (Homo sapiens) (UniProt P28482); details: Compound concentration 1000.0 nM
[14] = target: Serine/threonine-protein kinase Nek4 (Homo sapiens) (UniProt P51957); details: Compound concentration 1000.0 nM
[15] = target: cAMP-dependent protein kinase catalytic subunit alpha (Homo sapiens) (UniProt P17612); details: Compound concentration 1000.0 nM
[16] = target: Glycogen synthase kinase-3 beta (Homo sapiens) (UniProt P49841); details: Compound concentration 1000.0 nM
Sequence of Glycogen synthase kinase-3 beta (Homo sapiens) (P49841 whole entry, looked up): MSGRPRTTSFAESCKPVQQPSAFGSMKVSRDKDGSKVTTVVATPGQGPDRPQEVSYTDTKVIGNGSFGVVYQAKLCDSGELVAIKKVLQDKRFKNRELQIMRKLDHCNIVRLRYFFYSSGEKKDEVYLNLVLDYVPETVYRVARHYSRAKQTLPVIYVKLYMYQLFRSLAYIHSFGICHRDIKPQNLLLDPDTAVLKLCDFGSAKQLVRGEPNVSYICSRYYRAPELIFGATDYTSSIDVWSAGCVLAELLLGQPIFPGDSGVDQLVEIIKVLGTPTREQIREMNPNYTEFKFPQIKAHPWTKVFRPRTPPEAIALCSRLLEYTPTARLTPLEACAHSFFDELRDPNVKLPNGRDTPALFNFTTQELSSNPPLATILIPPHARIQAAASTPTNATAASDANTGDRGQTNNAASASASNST

[17] = target: Vascular endothelial growth factor receptor 1 (Homo sapiens) (UniProt P17948); details: Compound concentration 1000.0 nM
[18] = target: Ribosomal protein S6 kinase beta-1 (Homo sapiens) (UniProt P23443); details: Compound concentration 1000.0 nM
[19] = target: Cyclin-dependent kinase 16 (Homo sapiens) (UniProt Q00536); details: Compound concentration 1000.0 nM
[20] = target: Ephrin type-B receptor 4 (Homo sapiens) (UniProt P54760); details: Compound concentration 1000.0 nM
[21] = test system: Epidermal growth factor receptor (Homo sapiens), P00533 [UNDEFINED MUTATION]; details: Compound concentration 1000.0 nM
[22] = target: TGF-beta receptor type-1 (Homo sapiens) (UniProt P36897); details: Compound concentration 1000.0 nM
[23] = target: Serine/threonine-protein kinase tousled-like 1 (Homo sapiens) (UniProt Q9UKI8); details: Compound concentration 1000.0 nM
[24] = target: Discoidin domain-containing receptor 2 (Homo sapiens) (UniProt Q16832); details: Compound concentration 1000.0 nM
Sequence of Discoidin domain-containing receptor 2 (Homo sapiens) (Q16832 whole entry, the tested form may be a part): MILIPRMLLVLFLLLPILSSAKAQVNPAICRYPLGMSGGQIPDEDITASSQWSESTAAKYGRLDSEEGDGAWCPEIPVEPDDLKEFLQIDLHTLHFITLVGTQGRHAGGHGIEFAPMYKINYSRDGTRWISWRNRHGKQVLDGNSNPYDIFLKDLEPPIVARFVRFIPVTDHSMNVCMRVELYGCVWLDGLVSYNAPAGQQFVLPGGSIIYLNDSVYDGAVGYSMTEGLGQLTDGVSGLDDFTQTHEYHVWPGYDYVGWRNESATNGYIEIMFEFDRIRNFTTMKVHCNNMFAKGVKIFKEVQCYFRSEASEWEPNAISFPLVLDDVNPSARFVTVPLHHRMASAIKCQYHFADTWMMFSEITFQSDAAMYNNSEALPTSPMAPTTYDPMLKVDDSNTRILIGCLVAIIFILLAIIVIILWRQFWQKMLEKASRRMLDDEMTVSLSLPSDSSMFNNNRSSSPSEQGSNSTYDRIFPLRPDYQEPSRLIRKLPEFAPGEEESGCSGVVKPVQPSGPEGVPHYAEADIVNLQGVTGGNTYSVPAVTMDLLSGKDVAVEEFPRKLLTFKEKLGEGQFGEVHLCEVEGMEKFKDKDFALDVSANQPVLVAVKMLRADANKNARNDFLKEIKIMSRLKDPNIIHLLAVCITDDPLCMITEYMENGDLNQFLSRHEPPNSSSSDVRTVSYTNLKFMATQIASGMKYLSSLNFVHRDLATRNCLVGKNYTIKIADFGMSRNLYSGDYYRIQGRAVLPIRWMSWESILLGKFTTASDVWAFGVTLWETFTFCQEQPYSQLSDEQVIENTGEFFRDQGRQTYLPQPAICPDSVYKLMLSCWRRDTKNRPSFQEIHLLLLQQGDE

[25] = target: Ephrin type-B receptor 6 (Homo sapiens) (UniProt O15197); details: Compound concentration 1000.0 nM
Sequence of Ephrin type-B receptor 6 (Homo sapiens) (O15197 whole entry, canonical isoform): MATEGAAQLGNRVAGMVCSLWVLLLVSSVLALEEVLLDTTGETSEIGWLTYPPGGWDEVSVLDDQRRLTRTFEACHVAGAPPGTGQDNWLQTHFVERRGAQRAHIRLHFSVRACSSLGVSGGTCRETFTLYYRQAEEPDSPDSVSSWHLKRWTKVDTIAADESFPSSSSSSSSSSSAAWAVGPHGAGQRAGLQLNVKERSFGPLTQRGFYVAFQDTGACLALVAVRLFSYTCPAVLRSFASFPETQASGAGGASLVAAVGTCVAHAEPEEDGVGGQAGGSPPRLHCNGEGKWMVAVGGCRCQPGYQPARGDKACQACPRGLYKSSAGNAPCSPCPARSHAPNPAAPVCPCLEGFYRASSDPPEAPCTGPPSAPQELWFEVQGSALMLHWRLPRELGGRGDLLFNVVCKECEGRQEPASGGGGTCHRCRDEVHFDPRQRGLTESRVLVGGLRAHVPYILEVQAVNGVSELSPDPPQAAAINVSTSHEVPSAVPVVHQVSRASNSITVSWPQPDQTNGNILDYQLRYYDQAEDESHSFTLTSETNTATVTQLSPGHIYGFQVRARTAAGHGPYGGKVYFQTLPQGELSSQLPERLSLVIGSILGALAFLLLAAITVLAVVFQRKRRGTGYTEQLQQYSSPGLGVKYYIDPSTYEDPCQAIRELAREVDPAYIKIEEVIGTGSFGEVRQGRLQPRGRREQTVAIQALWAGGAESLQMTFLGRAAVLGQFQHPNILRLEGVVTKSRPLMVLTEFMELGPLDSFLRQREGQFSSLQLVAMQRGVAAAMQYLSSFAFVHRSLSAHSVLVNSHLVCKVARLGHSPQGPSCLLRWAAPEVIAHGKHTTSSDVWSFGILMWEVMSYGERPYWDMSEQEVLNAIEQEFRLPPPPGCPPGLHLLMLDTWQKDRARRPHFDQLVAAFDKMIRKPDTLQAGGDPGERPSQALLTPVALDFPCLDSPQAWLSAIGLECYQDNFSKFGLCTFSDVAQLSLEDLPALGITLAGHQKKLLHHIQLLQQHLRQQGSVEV

[26] = target: Casein kinase I isoform delta (Homo sapiens) (UniProt P48730); details: Compound concentration 1000.0 nM
[27] = target: Ribosomal protein S6 kinase alpha-3 (Homo sapiens) (UniProt P51812); details: Compound concentration 1000.0 nM
[28] = test system: Phosphatidylinositol 4,5-bisphosphate 3-kinase catalytic subunit alpha isoform (Homo sapiens), P42336 [E545A]; details: Compound concentration 1000.0 nM
[29] = target: Epidermal growth factor receptor (Homo sapiens) (UniProt P00533); details: Compound concentration 1000.0 nM
[30] = target: Sodium-dependent noradrenaline transporter (Homo sapiens) (UniProt P23975); details: Compound concentration 10.0 uM
Sequence of Sodium-dependent noradrenaline transporter (Homo sapiens) (P23975 whole entry): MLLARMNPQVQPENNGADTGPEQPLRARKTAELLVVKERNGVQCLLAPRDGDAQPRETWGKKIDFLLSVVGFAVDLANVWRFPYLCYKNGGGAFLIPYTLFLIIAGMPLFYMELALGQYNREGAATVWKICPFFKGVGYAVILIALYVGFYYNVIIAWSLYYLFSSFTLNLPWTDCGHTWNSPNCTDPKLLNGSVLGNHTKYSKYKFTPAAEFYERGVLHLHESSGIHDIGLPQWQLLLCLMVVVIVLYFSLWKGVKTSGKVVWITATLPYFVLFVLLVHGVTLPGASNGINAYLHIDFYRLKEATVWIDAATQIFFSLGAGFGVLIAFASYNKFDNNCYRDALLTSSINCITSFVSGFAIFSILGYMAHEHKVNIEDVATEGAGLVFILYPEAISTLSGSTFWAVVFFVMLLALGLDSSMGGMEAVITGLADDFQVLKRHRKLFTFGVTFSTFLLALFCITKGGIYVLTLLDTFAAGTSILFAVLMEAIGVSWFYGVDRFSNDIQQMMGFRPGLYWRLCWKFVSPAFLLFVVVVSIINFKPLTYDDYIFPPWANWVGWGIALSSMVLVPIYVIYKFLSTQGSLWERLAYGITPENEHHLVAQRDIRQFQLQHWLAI

[31] = target: Serine/threonine-protein kinase 26 (Homo sapiens) (UniProt Q9P289); details: Compound concentration 1000.0 nM
[32] = target: 1-phosphatidylinositol 3-phosphate 5-kinase (Homo sapiens) (UniProt Q9Y2I7); details: Compound concentration 1000.0 nM
[33] = target: 5-hydroxytryptamine receptor 3A (Homo sapiens) (UniProt P46098); details: Compound concentration 10.0 uM
[34] = target: Activin receptor type-2B (Homo sapiens) (UniProt Q13705); details: Compound concentration 1000.0 nM
[35] = target: Serine/threonine-protein kinase WNK2 (Homo sapiens) (UniProt Q9Y3S1); details: Compound concentration 1000.0 nM
[36] = target: Vascular endothelial growth factor receptor 3 (Homo sapiens) (UniProt P35916); details: Compound concentration 1000.0 nM
[37] = target: Serine/threonine-protein kinase Nek6 (Homo sapiens) (UniProt Q9HC98); details: Compound concentration 1000.0 nM
[38] = target: Cyclin-G-associated kinase (Homo sapiens) (UniProt O14976); details: Compound concentration 1000.0 nM
[39] = target: Mitogen-activated protein kinase 13 (Homo sapiens) (UniProt O15264); details: Compound concentration 1000.0 nM
[40] = target: Serine/threonine-protein kinase NIM1 (Homo sapiens) (UniProt Q8IY84); details: Compound concentration 1000.0 nM
[41] = target: Interleukin-1 receptor-associated kinase 1 (Homo sapiens) (UniProt P51617); details: Compound concentration 1000.0 nM
[42] = target: Vascular endothelial growth factor receptor 2 (Homo sapiens) (UniProt P35968); details: Compound concentration 1000.0 nM
[43] = target: Ribosomal protein S6 kinase alpha-4 (Homo sapiens) (UniProt O75676); details: Compound concentration 1000.0 nM
Sequence of Ribosomal protein S6 kinase alpha-4 (Homo sapiens) (O75676 whole entry, looked up): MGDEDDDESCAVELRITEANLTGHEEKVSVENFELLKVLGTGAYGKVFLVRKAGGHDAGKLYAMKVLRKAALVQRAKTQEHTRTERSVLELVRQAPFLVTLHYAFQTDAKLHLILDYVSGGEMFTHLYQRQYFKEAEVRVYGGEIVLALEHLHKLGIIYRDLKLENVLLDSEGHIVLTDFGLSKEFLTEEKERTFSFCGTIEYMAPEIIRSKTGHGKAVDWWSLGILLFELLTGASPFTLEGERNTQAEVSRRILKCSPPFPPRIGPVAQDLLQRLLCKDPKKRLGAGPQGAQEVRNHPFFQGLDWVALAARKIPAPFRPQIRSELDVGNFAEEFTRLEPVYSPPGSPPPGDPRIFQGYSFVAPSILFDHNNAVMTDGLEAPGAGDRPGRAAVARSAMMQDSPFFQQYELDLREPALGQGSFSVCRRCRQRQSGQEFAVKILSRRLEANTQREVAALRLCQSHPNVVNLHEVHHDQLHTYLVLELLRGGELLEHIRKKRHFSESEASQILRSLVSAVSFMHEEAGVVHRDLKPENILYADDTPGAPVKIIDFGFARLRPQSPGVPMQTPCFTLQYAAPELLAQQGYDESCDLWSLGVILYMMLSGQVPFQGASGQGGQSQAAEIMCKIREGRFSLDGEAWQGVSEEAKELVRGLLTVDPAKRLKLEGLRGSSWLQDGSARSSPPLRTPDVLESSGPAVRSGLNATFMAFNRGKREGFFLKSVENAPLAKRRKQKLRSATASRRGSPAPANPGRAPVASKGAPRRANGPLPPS

[44] = target: Activin receptor type-1 (Homo sapiens) (UniProt Q04771); details: Compound concentration 1000.0 nM
[45] = target: Ribosomal protein S6 kinase alpha-2 (Homo sapiens) (UniProt Q15349); details: Compound concentration 1000.0 nM

O=C1NC(c2ccccn2)Sc2ccccc21 (stereo not given) [BTZO-4]
inactive: residual activity [1] 91% | residual activity [2] 88% | residual activity [3] 79% | residual activity [4] 100% | residual activity [5] 100% | residual activity [6] 85% | residual activity [7] 95% | residual activity [8] 79% | inhibition [9] -5.37% | residual activity [10] 72% | residual activity [11] 100% | residual activity [12] 83% | residual activity [13] 89% | residual activity [14] 58% | residual activity [15] 81% | residual activity [16] 65% | residual activity [17] 100% | residual activity [18] 75% | residual activity [19] 100% | residual activity [20] 100% | residual activity [21] 100% | residual activity [22] 100% | residual activity [23] 94% | residual activity [24] 100% | residual activity [25] 78% | residual activity [26] 74% | residual activity [27] 78% | residual activity [28] 97% | residual activity [29] 82% | inhibition [30] 28.7% | residual activity [31] 80% | residual activity [32] 100% | inhibition [33] -1.17% | residual activity [34] 100% | residual activity [35] 100% | residual activity [36] 70% | residual activity [37] 84% | residual activity [38] 100% | residual activity [39] 100% | residual activity [40] 100% | residual activity [41] 96% | residual activity [42] 82% | residual activity [43] 100% | residual activity [44] 82% | residual activity [45] 97%

O=c1nc(-c2ccccn2)sc2ccccc12 [BTZO-1]
inactive: residual activity [1] 100% | residual activity [2] 96% | residual activity [3] 86% | residual activity [4] 100% | residual activity [5] 100% | residual activity [6] 92% | residual activity [7] 80% | residual activity [8] 97% | inhibition [9] 34.3% | residual activity [10] 98% | residual activity [11] 100% | residual activity [12] 83% | residual activity [13] 91% | residual activity [14] 91% | residual activity [15] 91% | residual activity [16] 74% | residual activity [17] 100% | residual activity [18] 100% | residual activity [19] 100% | residual activity [20] 100% | residual activity [21] 100% | residual activity [22] 97% | residual activity [23] 93% | residual activity [24] 100% | residual activity [25] 61% | residual activity [26] 81% | residual activity [27] 88% | residual activity [28] 92% | residual activity [29] 70% | inhibition [30] -0.363% | residual activity [31] 100% | residual activity [32] 100% | inhibition [33] 17.2% | residual activity [34] 100% | residual activity [35] 100% | residual activity [36] 84% | residual activity [37] 100% | residual activity [38] 97% | residual activity [39] 99% | residual activity [40] 100% | residual activity [41] 100% | residual activity [42] 100% | residual activity [43] 100% | residual activity [44] 79% | residual activity [45] 100%
